Legend:
MOLM-13 cells = test: Cell proliferation (alamarBlue), MOLM-13; type: cell-based; details: Homo sapiens, acute myeloid leukaemia cell line, 96 hours incubation
Protocol: (§1) The ability of the compounds according to the invention to inhibit the proliferation of various cell lines was determined.
(§2) Cell viability was determined by means of the alamarBlue® reagent (Invitrogen). The cells were sown at different densities (MOLM-13, LAPC-4, MOLP-8 and MDA-MB-231: 4000 cells/well; B16F10: 400 cells/well) in 100 μl of growth medium on 96-well microtitre plates. After overnight incubation at 37° C., the fluorescence values (CI values) were determined. The plates were then treated with various substance dilutions and incubated at 37° C. for 96 hours (MOLM-13, MDA-MB-231 and B16F10 cells), 120 hours (MOLP-8 cells) or 168 hours (LAPC-4 cells). Subsequently, the fluorescence values were determined (CO values). For the data analysis, the CI values were subtracted from the CO values and the results were compared between cells which had been treated with various dilutions of the substance or only with buffer solution.
(§3) The compounds according to the invention were tested in the cell lines in Table 2, which represent the indications specified by way of example:
(§4) The indications corresponding to the different cell lines can be found in Table 2.

MDA-MB-231 cells = test: Cell proliferation (alamarBlue), MDA-MB-231; type: cell-based; details: Homo sapiens, mammary carcinoma cell line, 96 hours incubation
Protocol: as §1, §2, §3, §4

B16F10 cells = test: Cell proliferation (alamarBlue), B16F10; type: cell-based; details: Mus musculus, B16-F10; melanoma cell line, 96 hours incubation
Protocol: as §1, §2, §3, §4

MOLP-8 cells = test: Cell proliferation (alamarBlue), MOLP-8; type: cell-based; details: Homo sapiens, multiple myeloma cell line, 120 hours incubation
Protocol: as §1
as §2, with “values).” for “values). For the data analysis, the CI values were subtracted from the CO values and the results were compared between cells which had been treated with various dilutions of the substance or only with buffer solution.”
as §3, §4

LAPC-4 cells = test: Cell proliferation (alamarBlue), LAPC-4; type: cell-based; details: Homo sapiens, LAPC4; prostate carcinoma (androgen receptor-positive) cell line, 168 hours incubation
Protocol: as §1
as §2, with “values).” for “values). For the data analysis, the CI values were subtracted from the CO values and the results were compared between cells which had been treated with various dilutions of the substance or only with buffer solution.”
as §3, §4

[1] = biological target: BRD4(1) (amino acids 44-168) (Homo sapiens (Human), UniProt O60885); test: BRD4 binding strength, TR-FRET (HTRF) assay of BRD4(1) / acetylated histone H4 peptide interaction; details: inhibition of BRD4(1)/Ac-H4 peptide interaction
Text: To assess the BRD4 binding strength of the compounds according to the invention, the ability thereof to inhibit the interaction between BRD4 and acetylated histone H4 in a dose-dependent manner was quantified. For this purpose, a time-resolved fluorescence resonance energy transfer (TR-FRET) assay was used, which measures the binding between N-terminally His6-tagged BRD4(1) (amino acids 44-168) and a synthetic acetylated histone H4 (Ac-H4) peptide with sequence […]-biotin. The recombinant BRD4 protein produced in-house according to Filippakopoulos et al., Cell, 2012, 149:214-231 was expressed in E. coli and purified by means of (Ni-NTA) affinity and (Sephadex G-75) size exclusion chromatography. The Ac-H4 peptide can be purchased, for example, from Biosyntan (Berlin, Germany). […] For this purpose, 100-fold concentrated solutions in DMSO were prepared by serial dilutions (1:3.4) of a 2 mM stock solution into a clear, 384-well microtitre plate (Greiner Bio-One, Frickenhausen, Germany). From this, 50 nl were transferred into a black test plate (Greiner Bio-One, Frickenhausen, Germany). […] This was followed by a 10-minute incubation step at 22° C. for the pre-equilibration of putative complexes between BRD4 and the substances. Subsequently, 3 μl of a solution of 1.67 times the concentration (in assay buffer) consisting of Ac-H4 peptide (83.5 nM) and TR-FRET detection reagents [16.7 nM anti-6His-XL665 and 3.34 nM streptavidin cryptate (both from Cisbio Bioassays, Codolet, France), and 668 mM potassium fluoride (KF)] were added. The mixture was then incubated in the dark at 22° C. for one hour and then at 4° C. overnight. The formation of BRD4/Ac-H4 complexes was determined by the measurement of the resonance energy transfer from the streptavidin-Eu cryptate to the anti-6His-XL665 antibody present in the reaction. […] The ratio of the emissions at 665 nm and at 622 nm was taken as an indicator of the amount of BRD4/Ac-H4 complexes formed.

| IC50 (MOLM-13 cells) | IC50 (MDA-MB-231 cells) | IC50 (B16F10 cells) | IC50 [1] | Compound | IC50 (MOLP-8 cells) | IC50 (LAPC-4 cells) |
| --- | --- | --- | --- | --- | --- | --- |
| 150 nM | 380 nM | 160 nM | – | Cc1nnc2n1-c1ccccc1C(c1ccc(Cl)cc1)=C[C@H]2CC(=O)N1CC2(CCS2(=O)=O)C1 [Example 19, (−)-2-[(4R)-6-(4-chlorophenyl)-1-methyl-4H-[1,2,4]triazolo[4,3-a][1]benzazepin-4-yl]-1-(1,1-dioxido-1-thia-6-azaspiro[3.3]hept-6-yl)ethanone] | 190 nM | 170 nM |
| 330 nM | 1290 nM | 400 nM | 450 nM | Cc1nnc2n1-c1ccccc1C(c1ccc(Cl)cc1)=C[C@H]2CC(=O)N1CC2CCC(C1)O2 (single isomer, unassigned; (-)) [Example 33] | – | 150 nM |
| 230 nM | 350 nM | 130 nM | 40 nM | Cc1nnc2n1-c1ccccc1C(c1ccc(Cl)cc1)=CC2CC(=O)N1CCOCC1 (stereo in doubt) [Example 15, (−)-2-[(4R)-6-(4-chlorophenyl)-1-methyl-4H-[1,2,4]triazolo[4,3-a][1]benzazepin-4-yl]-1-(morpholin-4-yl)ethanone] | – | 60 nM |
| 360 nM | 2370 nM | 550 nM | 130 nM | Cc1nnc2n1-c1ccccc1C(c1ccc(Cl)cc1)=CC2CC(=O)N1CC2(COC2)C1 (stereo in doubt) [Example 4, (−)-2-[(4R)-6-(4-chlorophenyl)-1-methyl-4H-[1,2,4]triazolo[4,3-a][1]benzazepin-4-yl]-1-(2-oxa-6-azaspiro[3.3]hept-6-yl)ethanone] | 740 nM | 660 nM |
| 850 nM | 1130 nM | 490 nM | 80 nM | Cc1nnc2n1-c1ccccc1C(c1ccc(Cl)cc1)=CC2CC(=O)N1CCS(=O)(=O)C1 (stereo not drawn) [Example 30, 2-[6-(4-chlorophenyl)-1-methyl-4H-[1,2,4]triazolo[4,3-a][1]benzazepin-4-yl]-1-(1,1-dioxido-1,3-thiazolidin-3-yl)ethanone] | – | 190 nM |
| 1130 nM | 1330 nM | 490 nM | 1400 nM | Cc1nnc2n1-c1ccccc1C(c1ccc(Cl)cc1)=C[C@H]2CC(=O)N1CC(Oc2ccccc2)C1 [Example 25, (−)-2-[(4R)-6-(4-chlorophenyl)-1-methyl-4H-[1,2,4]triazolo[4,3-a][1]benzazepin-4-yl]-1-(3-phenoxyazetidin-1-yl)ethanone] | 590 nM | 170 nM |
| 160 nM | 210 nM | 150 nM | 30 nM | Cc1noc(C[C@H]2C=C(c3ccc(Cl)cc3)c3ccccc3-n3c(C)nnc32)n1 [Example 35, (−)-6-[(4R)-4-chlorophenyl]-1-methyl-4-[(3-methyl-1,2,4-oxadiazol-5-yl)methyl]-4H-[1,2,4]triazolo[4,3-a][1]benzazepine] | 130 nM | 80 nM |
| 2940 nM | 2530 nM | 1050 nM | 220 nM | Cc1nnc2n1-c1ccccc1C(c1ccc(Cl)cc1)=CC2CC(=O)N1CC(Oc2ccccc2)C1 (stereo not drawn) [Example 24, 2-[6-(4-chlorophenyl)-1-methyl-4H-[1,2,4]triazolo[4,3-a][1]benzazepin-4-yl]-1-(3-phenoxyazetidin-1-yl)ethanone] | – | 550 nM |
| 310 nM | 320 nM | 150 nM | 30 nM | CCNC(=O)CC1C=C(c2ccc(Cl)cc2)c2ccccc2-n2c(C)nnc21 (stereo in doubt) [Example 13, (−)-2-[(4R)-6-(4-chlorophenyl)-1-methyl-4H-[1,2,4]triazolo[4,3-a][1]benzazepin-4-yl]-N-ethylacetamide] | – | 60 nM |
| 190 nM | 560 nM | 220 nM | 180 nM | Cc1nnc2n1-c1ccccc1C(c1ccc(Cl)cc1)=C[C@H]2CC(=O)N1CCS(=O)(=O)C1 [Example 31, (−)-2-[(4R)-6-(4-chlorophenyl)-1-methyl-4H-[1,2,4]triazolo[4,3-a][1]benzazepin-4-yl]-1-(1,1-dioxido-1,3-thiazolidin-3-yl)ethanone] | – | 80 nM |
| 120 nM | 110 nM | 60 nM | 20 nM | Cc1nnc(CC2C=C(c3ccc(Cl)cc3)c3ccccc3-n3c(C)nnc32)o1 (stereo in doubt) [Example 38, (−)-(4R)-6-(4-chlorophenyl)-1-methyl-4-[(5-methyl-1,3,4-oxadiazol-2-yl)methyl]-4H-[1,2,4]triazolo[4,3-a][1]benzazepine] | 45 nM | 40 nM |
| 2960 nM | 4730 nM | 2120 nM | 1800 nM | Cc1nnc2n1-c1ccccc1C(c1ccc(Cl)cc1)=C[C@H]2CC(=O)N1CCC2(CCCC2)CC1 [Example 29, (−)-1-(8-azaspiro[4.5]dec-8-yl)-2-[(4R)-6-(4-chlorophenyl)-1-methyl-4H-[1,2,4]triazolo[4,3-a][1]benzazepin-4-yl]ethanone] | 1670 nM | 670 nM |
| 540 nM | 980 nM | 350 nM | 240 nM | Cc1nnc2n1-c1ccccc1C(c1ccc(Cl)cc1)=CC2CC(=O)Nc1ccc2c(c1)CC(=O)N2 (stereo not drawn) [Example 20, 2-[6-(4-chlorophenyl)-1-methyl-4H-[1,2,4]triazolo[4,3-a][1]benzazepin-4-yl]-N-(2-oxo-2,3-dihydro-1H-indol-5-yl)acetamide] | – | 140 nM |
| 330 nM | 380 nM | 220 nM | 50 nM | Cc1nnc2n1-c1ccccc1C(c1ccc(Cl)cc1)=CC2Cc1nc(C2CC2)no1 (stereo in doubt) [Example 37, (−)-(4R)-6-(4-Chlorophenyl)-4-[(3-cyclopropyl-1,2,4-oxadiazol-5-yl)methyl]-1-methyl-4H-[1,2,4]triazolo[4,3-a][1]benzazepine] | – | 310 nM |
| 1810 nM | 2040 nM | 800 nM | 390 nM | Cc1nnc2n1-c1ccccc1C(c1ccc(Cl)cc1)=CC2CC(=O)N1CC2CCC(C1)O2 (stereo not drawn) [Example 32, 2-[6-(4-chlorophenyl)-1-methyl-4H-[1,2,4]triazolo[4,3-a][1]benzazepin-4-yl]-1-(8-oxa-3-azabicyclo[3.2.1]oct-3-yl)ethanone] | – | 250 nM |
| 460 nM | 1010 nM | 410 nM | 310 nM | Cc1nnc2n1-c1ccccc1C(c1ccc(Cl)cc1)=CC2CC(=O)N1CCOCC1 (stereo not drawn) [Example 14, 2-[6-(4-chlorophenyl)-1-methyl-4H-[1,2,4]triazolo[4,3-a][1]-benzazepin-4-yl]-1-(morpholin-4-yl)ethanone] | – | 210 nM |

| Compound | IC50 (MOLM-13 cells) | IC50 (MDA-MB-231 cells) | IC50 (B16F10 cells) | IC50 [1] | IC50 (MOLP-8 cells) | IC50 (LAPC-4 cells) |
| --- | --- | --- | --- | --- | --- | --- |
| Cc1nnc2n1-c1ccccc1C(c1ccc(Cl)cc1)=CC2CC(=O)N1C2CCC1CC(=O)C2 (stereo not drawn) [Example 22] | 1730 nM | 2900 nM | 840 nM | 340 nM | – | 210 nM |

From patent US9663523B2, “BET protein-inhibiting 5-aryltriazoleazepines” (BAYER PHARMA AKTIENGESELLSCHAFT, priority 2012, dated 2017)
